Columns and labels:
[1] = Nanoparticle characterization (size, zeta potential, drug loading, entrapment efficiency); type: physicochemical; conditions: per drug, HPLC
Procedure: Briefly, in a typical procedure, a solution of ethylene oxide/propylene oxide block copolymer (Poloxamer-127; 2% [w/v] in double distilled water (ddH2O 10 mL); BASF, Mt. Olive, N.J.) was homogenized with ART drug powder (1 mg of each) in poly-lactic-co-glycolic acid) (PLGA) polymer (molecular weight 110,000-139,000 Daltons (100 mg) in 10 mL methylene chloride) using a probe sonicator (21W for 6 min) (Sonicator XL, Misonix, Farmingdale, N.Y.). The water-in-oil emulsion thus formed was further emulsified into 30 mL of 0.25% (w/v) aqueous solution of polyvinyl alcohol (PVA) as an emulsifier by using sonication as described above for 5 minutes to fowl multiple water-in-oil-in-water emulsion. […] Additionally, 6-hydroxycoumarin (a fluorescent dye; 1% w/v) was added to the polymer solution and one milligram of each ART were fabricated to make fluorescent nanoparticles for flow cytometry. In all formulation procedures, the emulsion was stirred for approximately 18 hours at room temperature to evaporate the organic solvent, methylene chloride, followed by ultracentrifugation (15,000 G for 45 minutes at 4° C., Optima LE-80K, Beckman, Palo Alto, Calif.), rinsed twice with ddH2O to remove PVA, and unentrapped drugs, and then lyophilized (Labconco, Freezone 4.5 at −52° C. and 5.62 torr) for 24 hours to obtain a dry powder.
Nanoparticle characterization: Nanoparticles were evaluated for size by […] as well as scanning electron microscopy (SEM) and surface charge by using a zeta potential analyzer (ZetaPlus, Brookhaven Instruments, Holtsville, N.Y.). For SEM, a sample of nanoparticles was suspended in water (0.2 mg/ml) and an aliquot of suspended particles were placed onto a tip and sputter coated with 2% w/v uranyl acetate, dried, and then visualized by using a JEOL-40A (JEOL Ltd, Sheboygan, Wis.) scanning electron microscope. Additionally, one milligram of formed particles was dissolved in one milliliter methylene chloride in glass tubes and evaporated overnight in quadruplicate. High pressure liquid chromatography (HPLC) mobile phase (200 μL) reconstituted the tubes. The tubes were centrifuged (11,000 rpm, 10 minutes, 4° C.) and aliquots were injected into the HPLC equipment to determine ART drug loading and entrapment efficiency.
Standards were analyzed in triplicate and averaged.

PBMCs = test: ART release from nanoparticles / free drug: intracellular drug levels in PBMCs by HPLC
Procedure: High pressure liquid chromatography (HPLC): HPLC was performed using a previously reported method (Weller et al., J. Chromatogr. B Analyt. Technol. Biomed. Life Sci., 2007, 848(2):369-73). Briefly, the equipment included a pump (LC-10ATvp), system controller (SIL-10ADvp); degasser unit (DGU-14A), refrigerated auto-sampler (SIL-10ADvp); and a UV-Vis detector (SPD-10ADvp) and a column heater (set at 35° C.) (all from Shimadzu Corporation, Columbia, Md.). Samples were run through a C18 pre-column and a Jupiter C18 reverse-phase [150×3.9 mm (I.D.)] with […] particle size packing (Phenomenex, Torrance, Calif.). The mobile phase was 25 mM KHPO4 (pH 4.9) and acetonitrile (40:60). The mobile phase was filtered and degassed prior to use. Flow rate was set at 0.9 mL/min and the detector was set at 212 nm. […] Peak area from the samples and standards were integrated using EZ-Start chromatography software (Shimadzu) on a Dell computer. Injection volume was 20 μL and all samples were analyzed in duplicate and averaged. Standards were analyzed in triplicate and averaged.
Human monocyte isolation and cultivation: Human PBMCs were obtained from whole blood collection of HIV-1, -2 and hepatitis B seronegative donor and purified using CPT Vacutainer tubes (BD and Co., Sparks, Md.) according to the manufacturer instructions. […] (1×10^6 cells/mL) were cultured in DMEM supplemented with 10% heat-inactivated pooled human serum, 1% glutamine, 1% penicillin-streptomycin, and 10 µg/mL ciprofloxacin (Sigma Chemical Co) then filter sterilized. The PBMCs were used within 2 hours after blood collection. Media was one-half exchanged with fresh media every 2-3 days. These cells were used for ART drug release experiments from nanoparticles as determined by HPLC. Human PBMCs at 5×10^6 were cultured in DMEM supplemented with 10% heat-inactivated pooled human serum, 1% glutamine, 1% penicillin-streptomycin, and 10 µg/mL ciprofloxacin (Sigma Chemical Co), and 1000 U/mL highly purified recombinant human macrophage colony stimulating factor (MCSF; R&D Systems, Inc; Minneapolis, Minn.) for seven days. Media was one-half exchanged very 2-3 days. Monocyte-derived macrophages (MDM) were used for TEM and fluorescent imaging.
ART Release from Nanoparticles: Antiretroviral nanoparticles (100 μg) were added to PBMC cell cultures. Flasks containing PBMCs and ART nanoparticles were placed in a 37° C., 5% CO2 incubator. At the appointed time, media in the flask was placed in a sterile 15 mL conical tube and centrifuged (400×G, 24° C. for 10 minutes). Cells (250 μL) were removed from the tube and put into a microfuge tube for HPLC analysis. […] Cell samples were placed in microfuge tubes, 250 μL of 100% methanol was added to lyse the cells then the cells were frozen (−20° C.) until assayed for ART drugs using HPLC. When HPLC was performed, microfuge tubes were thawed, centrifuged at 15,000 rpm at 4 C for 10 minutes and an aliquot of supernatant was placed into autosampler vials with glass insert. Free drugs (25 μg/mL of each ART drug) was dissolved in HPLC-grade ethanol, incubated with the PBMCs and cells were removed at 2, 4, 8, 24, and 48 hours, lysed with methanol, centrifuged, and assayed by HPLC as controls of these experiments.

[2] = Serum pharmacokinetics after a single intraperitoneal dose in mice; conditions: for MRT: MRT (mean residence time within the serum)
Procedure: (§1) The particles were weighed, reconstituted with PBS and 500 μg was injected intraperitoneally (IP) into male BALB/c mice. At specific times, (free: 0.08, 0.167, 0.25, 0.33, 1, 2 and 3 days; antiretroviral nanoparticles: 0.167, 0.33, 1, 2, 4, 7, 14, 21, 28, and 35 days) mice (n=3/time point) were euthanized and selected organs and serum were harvested for antiretroviral drug levels. Results are presented as mean±SEM.
(§2) The nanoparticle powder was weighed and 500 μg was dissolved in phosphate-buffered saline (PBS) and injected intraperitoneally into each BALB/c male mice (25-28 g). […] At specified times points, mice (n=3-4) were euthanized using a CO2 chamber and organs (spleen, liver, kidney, brain, testes) and blood (100-150 μL) were removed from each of the mice. Blood was allowed to clot, centrifuged (1000×G) and serum was harvested. The organs were harvested and immediately placed on ice. At weekly intervals, an aliquot of the organ tissue was weighed and 500 μL of 100% methanol was added to tissue and serum samples. The tissue was homogenized using a pellet homogenizer, equilibrated at 4° C. for 30 minutes, and then centrifuged (11,400 RPM×15 minutes at 4° C.). An aliquot of the supernatant (20 μL/injection) was added to autosampler vials with glass inserts. […] Duplicate samples from tissues and serum were assayed and standards were assayed in triplicate. The organ/serum samples were compared to the standard curve (45-1000 ng/ml) that was performed on that day using peak area and EZ-Chrom software (Shimadzu, Corp.).
Data is presented as mean±SEM where appropriate. Serum concentration-time curves were used to determine pharmacokinetic parameters. Elimination rate constant was determined using nonlinear regression of the terminal phase of the serum concentration-time curve. Apparent volume of distribution, total body clearance, mean residence time and area under the serum concentration-time curve to the last concentration obtained (AUC0-last) were determined by non-compartmental modeling.

[3] = Drug levels in organs and serum of mice after a single intraperitoneal dose; conditions: male, BALB/c, mouse, liver, ip, 500 μg
Procedure: as §1
as §2, with “The organ/serum samples were compared to the standard curve (45-1000 ng/ml) that was performed on that day using peak area and EZ-Chrom software (Shimadzu, Corp.).” left out

[4] = PLGA NPs 500 μg IP, mice, listed as E
[5] = male, BALB/c, mouse, in vivo, ip, 500 ug
[6] = male, BALB/c, mouse, in vivo, ip, 500 ug, Elimination half-life, drug given as PLGA nanoparticles, averaging
[7] = male, BALB/c, mouse, in vivo, ip, 500 ug, Free ART
[8] = male, BALB/c, mouse, in vivo, ip, 500 ug, NP ART
[9] = male, BALB/c, mouse, in vivo, ip, 500 ug, T1/2 (elimination half-life), Free ART
[10] = male, BALB/c, mouse, in vivo, ip, 500 ug, T1/2 (elimination half-life), NP ART

O=C1Nc2ccc(Cl)cc2[C@@](C#CC2CC2)(C(F)(F)F)O1 [EFV, efavirenz]
Antiretroviral drug loading of the nanoparticles [1]: 10.8% | Entrapment efficiency [1]: 86% | Intracellular peak level, drug given as nanoparticles (PBMCs; PLGA NPs (100 μg) incubated with PBMCs): 10.6+2.7 μg | Time of intracellular peak concentration, drug given as nanoparticles (PBMCs; PLGA NPs incubated with PBMCs): 24 h | Time of intracellular peak level, drug given as nanoparticles (PBMCs; PLGA NPs incubated with PBMCs (summary of Example 1)): 4 days | Intracellular peak concentration, free drug (PBMCs; free drug 25 μg/mL in ethanol, PBMCs, at 8 hours): 3.1+0.02 μg | Time of intracellular peak concentration, free drug (PBMCs; free drug, PBMCs): 8 h | Time to elimination of free drug from PBMCs (PBMCs; human, 25 μg/mL): ≤ 48 h | Peak serum level, drug given as PLGA nanoparticles ([2]; PLGA NPs 500 μg IP single dose, mice): 853.2 ± 64.1 ng/mL | AUC (area under the serum concentration-time curve), NP ART ([2]; PLGA NPs 500 μg IP, mice): E: 5716.9 ± 3177.7 ng-day/ml | ClT (total body clearance), NPs ([2]; PLGA NPs 500 μg IP, mice): 2.85 ± 2.12 mL/min/kg | Time of peak serum level, drug given as PLGA nanoparticles ([2]; PLGA NPs 500 μg IP, mice): 0.25 h | Vd (volume of distribution), NP ART ([2]; PLGA NPs 500 μg IP, mice): 11.38 ± 10.72 L/kg | MRT (mean residence time within the serum), NP ART [2, 4]: E: 10.3 ± 4.24 days | Vd (volume of distribution), NP ART [2, 4]: E: 11.4 ± 10.7 L/kg | Peak serum level, free drug ([2]; free drugs 500 μg IP single dose, mice, 4 hours post-injection): 3.5 ± 1.9 µg/L | AUC (area under the serum concentration-time curve, AUC0-last), Free ART ([2]; free drugs 500 μg IP, mice): 646 ± 640 ng·days/mL | Time of peak serum level, free drug ([2]; free drugs 500 μg IP, mice): 4 h | Vd (volume of distribution), Free ART ([2]; free drugs 500 μg IP, mice): 39.3 ± 26.6 L/kg | T1/2 (elimination half-life), Free ART ([2]; free drugs 500 μg IP, mice, serum, listed as E): E: 11.76 ± 2.8 hrs | AUC (area under the serum concentration-time curve, AUC0-last), Free ART [2, 5]: E: 645. 9 ± 640.2 ng-day/ml | MRT ([2]; male, BALB/c, mouse, serum, ip, 500 ug, Free ART, free drugs 500 μg IP, mice): 13.7 h | MRT ([2]; male, BALB/c, mouse, serum, ip, 500 ug, NP ART, PLGA NPs 500 μg IP, mice): 248 h | half-life ([2]; male, BALB/c, mouse, serum, ip, 500 ug, T1/2 (elimination half-life), Free ART, free drugs 500 μg IP, mice): 11.8 ± 2.8 h | half-life ([2]; male, BALB/c, mouse, serum, ip, 500 ug, T1/2 (elimination half-life), NP ART, PLGA NPs 500 μg IP, mice): 35.5 h | concentration at 28 day [3]: 1020 ± 440 ng/g

Cc1cccc(C)c1OCC(=O)N[C@@H](Cc1ccccc1)[C@@H](O)C[C@H](Cc1ccccc1)NC(=O)[C@H](C(C)C)N1CCCNC1=O [LPV, lopinavir]
Antiretroviral drug loading of the nanoparticles [1]: 5.2% | Time of intracellular peak concentration, free drug (PBMCs; human, 25 μg/mL): 8 h | Time to elimination of free drug from PBMCs (PBMCs; human, 25 μg/mL): ≤ 48 h | Intracellular peak level, drug given as nanoparticles (PBMCs; human, 100 μg): 4.1+2.0 μg | Time of intracellular peak concentration, drug given as nanoparticles (PBMCs; human, 100 μg): 96 h | Time of intracellular peak level, drug given as nanoparticles (PBMCs; human, 100 μg): 4 days | Vd (volume of distribution), Free ART [2, 5]: 41.6 ± 31.7 L/kg | Vd (volume of distribution), NP ART [2, 5]: 118.6 ± 165.9 L/kg | half-life [2, 6]: > 1680 h | MRT [2, 7]: 14.4 h | MRT [2, 8]: 5490 h | half-life [2, 9]: 15.1 ± 6.4 h | half-life [2, 10]: 645 h | AUC (area under the serum concentration-time curve), NP ART ([2]; mouse, in vivo, ip, 500 ug): L: 3329.8 ± 1785.3 ng-day/ml

CC(C)c1nc(CN(C)C(=O)N[C@H](C(=O)N[C@@H](Cc2ccccc2)C[C@H](O)[C@H](Cc2ccccc2)NC(=O)OCc2cncs2)C(C)C)cs1 [RTV, ritonavir]
Antiretroviral drug loading of the nanoparticles [1]: 4.9% | Time of intracellular peak concentration, free drug (PBMCs; human, 25 μg/mL): 8 h | Time to elimination of free drug from PBMCs (PBMCs; human, 25 μg/mL): ≤ 48 h | Intracellular peak level, drug given as nanoparticles (PBMCs; human, 100 μg): 2.5+1.1 μg | Time of intracellular peak concentration, drug given as nanoparticles (PBMCs; human, 100 μg): 96 h | Time of intracellular peak level, drug given as nanoparticles (PBMCs; human, 100 μg): 4 days | Vd (volume of distribution), Free ART [2, 5]: 9.7 ± 4.4 L/kg | Vd (volume of distribution), NP ART [2, 5]: 549.9 ± 360 L/kg | half-life [2, 6]: > 1680 h | MRT [2, 7]: 4.8 h | MRT [2, 8]: 775 h | half-life [2, 9]: 9.6 ± 2.8 h | half-life [2, 10]: 5500 h | AUC (area under the serum concentration-time curve), NP ART ([2]; mouse, in vivo, ip, 500 ug): R: 7020.5 ± 11428.7 ng-day/ml

Reference: US8846096B2, “Nanoparticles and methods of use” (Creighton University, priority 2008, dated 2014)
